# Laboratory results taken from ChEMBL document CHEMBL1201862, “PubChem BioAssay data set” (2004).
# Active and inactive are the calls of the source.
# What was measured:
# [1] = biological target: T1, Sentrin-specific protease 8 (Homo sapiens, UniProt Q96LD8); format: functional;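 further: luminescence read-out of SENP8 inhibition, dose-response confirmation following an ultra-high-throughput screen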
# T1 sequence (Q96LD8 whole entry): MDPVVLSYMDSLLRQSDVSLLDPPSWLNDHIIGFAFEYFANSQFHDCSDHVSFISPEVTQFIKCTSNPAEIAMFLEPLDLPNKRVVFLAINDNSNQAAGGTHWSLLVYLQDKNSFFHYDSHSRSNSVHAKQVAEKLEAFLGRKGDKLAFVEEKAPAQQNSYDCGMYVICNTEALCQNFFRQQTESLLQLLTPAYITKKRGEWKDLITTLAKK
# Hexokinase HKDC1 = biological target: T2, Hexokinase HKDC1 (Homo sapiens, UniProt Q2TB90); test: activation of HKDC1 glucose phosphorylation – biochemical, W721R variant, dose response (AID 504730); format: functional
# T2 sequence (Q2TB90 whole entry): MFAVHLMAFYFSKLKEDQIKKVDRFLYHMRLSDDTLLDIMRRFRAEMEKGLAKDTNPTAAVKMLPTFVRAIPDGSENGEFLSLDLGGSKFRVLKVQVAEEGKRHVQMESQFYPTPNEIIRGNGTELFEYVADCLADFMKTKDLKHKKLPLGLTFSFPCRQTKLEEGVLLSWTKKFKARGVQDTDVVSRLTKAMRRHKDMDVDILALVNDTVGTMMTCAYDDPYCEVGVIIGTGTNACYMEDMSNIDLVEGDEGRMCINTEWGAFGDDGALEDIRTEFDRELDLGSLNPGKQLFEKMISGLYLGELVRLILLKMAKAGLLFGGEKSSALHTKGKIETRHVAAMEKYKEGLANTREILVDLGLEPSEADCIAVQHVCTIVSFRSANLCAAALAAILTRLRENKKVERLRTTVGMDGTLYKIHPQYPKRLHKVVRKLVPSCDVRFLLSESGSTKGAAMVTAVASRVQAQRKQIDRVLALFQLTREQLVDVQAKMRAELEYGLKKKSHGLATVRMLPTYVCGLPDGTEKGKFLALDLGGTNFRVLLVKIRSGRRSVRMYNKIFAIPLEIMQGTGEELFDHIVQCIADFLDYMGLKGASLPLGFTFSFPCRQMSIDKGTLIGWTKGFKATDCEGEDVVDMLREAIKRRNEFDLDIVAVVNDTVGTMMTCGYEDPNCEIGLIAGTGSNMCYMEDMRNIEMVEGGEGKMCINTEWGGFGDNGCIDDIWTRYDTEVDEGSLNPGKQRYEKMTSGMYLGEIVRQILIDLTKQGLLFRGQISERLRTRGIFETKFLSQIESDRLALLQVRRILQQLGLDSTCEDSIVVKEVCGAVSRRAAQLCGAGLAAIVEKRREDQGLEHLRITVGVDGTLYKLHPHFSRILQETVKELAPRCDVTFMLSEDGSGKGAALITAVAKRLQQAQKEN
# [2] = Fluorescence-based cell-based high throughput dose response assay for inhibitors of the interaction of nucleotide-binding oligomerization domain containing 2 (NOD2) and the receptor-interacting serine-threonine kinase 2 (RIPK2).; format: functional, Homo sapiens; details: Homo sapiens
# [3] = biological target: T3, Sphingosine 1-phosphate receptor 4 (Homo sapiens, UniProt O95977); test: Late stage fluorescence dose response cell-based screening assay for antagonists of the Sphingosine 1-Phosphate Receptor 4 (S1P4). [Related pubchem assays: 1524 (Confirmation screen (S1P4 antagonists).), 1510 (Primary screen (S1P4 antagonists).), 1853 (Summary AID (S1P4 antagonists).), 1692 (Dose response screen (S1P4 antagonists).)]; format: functional
# T3 sequence (O95977 whole entry): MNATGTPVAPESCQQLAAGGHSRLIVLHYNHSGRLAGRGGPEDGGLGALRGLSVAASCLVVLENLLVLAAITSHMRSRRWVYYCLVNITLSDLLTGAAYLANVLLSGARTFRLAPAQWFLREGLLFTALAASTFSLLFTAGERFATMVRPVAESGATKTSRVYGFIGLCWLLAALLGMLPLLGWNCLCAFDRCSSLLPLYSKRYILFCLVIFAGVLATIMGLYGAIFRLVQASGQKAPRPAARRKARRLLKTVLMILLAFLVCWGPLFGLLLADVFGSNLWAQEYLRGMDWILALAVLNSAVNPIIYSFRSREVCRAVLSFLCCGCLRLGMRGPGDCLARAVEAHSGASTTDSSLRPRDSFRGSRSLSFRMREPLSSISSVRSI
# [4] = viability of BHK-21 cells – cell-based, secondary screen, cytotoxicity control for flavivirus guanylyltransferase probe project (AID 624078); format: functional
# [5] = Luminescence Cell-Based/Microorganism Confirmation at Dose of Inhibitors of Trypanosoma cruzi Infection. [Related pubchem assays: 1885, 1968 ]; format: functional
# [6] = system: Streptococcus sp. 'group A'; test: Streptococcus pyogenes SK(-)GAS viability under kanamycin – luminescence, BacTiterGlo, confirmation, counter-screen for streptokinase expression inhibitor project, dose response (AID 1900); format: functional, organism-based
# [7] = Vero E6 cell cytotoxicity, dose response, cytotoxicity control for non-replicating M. tuberculosis project, secondary assay (AID 492998); format: functional, VeroE6; details: Vero C1008
compound,measurement,setting,value
O=C1NC(=S)N/C1=C/c1cc2c(cc1[N+](=O)[O-])OCO2,IC50,[1],9.01 µM (active)
same,EC50,Hexokinase HKDC1,> 80 µM (inactive)
Cc1ccc(NC(=O)C2=C(c3ccccc3)S(=O)(=O)CCS2(=O)=O)cc1,IC50,[2],2.73 µM (active)
same,IC50,[3],3.72 µM (not active)
O=C(O)CSc1cc(NS(=O)(=O)c2ccc(Br)cc2)c2ccccc2c1O,CC50,[4],7.81 µM (active)
O=C(CNc1cccc2ccccc12)N/N=C/c1ccc([N+](=O)[O-])o1,EC50,[5],0.022 µM (active)
same,EC50,[6],0.901 µM (active)
same,CC50,[7],> 20 µM (active)
